Where two headings read alike, the source gives them in different places.
Legend:
[1] = Phase I study: safety and tolerability (adverse events) of VS-6063 tablets; assay type: in vivo, human (healthy male subjects)
Excerpt: In a Phase I, open-label, single center, single dose, partially randomized trial, the safety, bioavailability, and pharmacodynamics of prototype and reference formulations of VS-6063 were investigated in healthy male subjects. The study was comprised of four periods, each of which adhered to the same study design and involved 24 healthy male subjects between 40 and 65 years of age with a body mass index between 18.0 and 35.0 kg/m^2. Following a 28 day screening period, the subjects were admitted to the clinical unit the morning prior to dosing day (Day −1) and were dosed in the morning of Day 1. Subjects in Regimens A and B were administered VS-6063 following an overnight fast of about 10 hours, while subjects in Regimens C and D were administered VS-6063 within 30 minutes of starting a high fat breakfast, which was consumed within 25 minutes. Subjects remained on site until 36 hours after dosing. There was a minimum washout period of 7 days between the administration of each regimen. A follow-up phone call took place 7 to 10 days post final dose in periods 3 and 4 to ensure the ongoing well-being of the subjects.

in vivo = settings: male, beagle, dog, po
Protocol: (§1) 4 groups of 1 male beagle dog per group received an oral gavage dose of VS-6063 in various formulations in a 4-session crossover design with a minimum 3-day washout period between dose sessions. In each session, VS-6063, VS-6063-25% SDD in Soluplus/PVP-A, VS-6063-25% physical mixture with Soluplus/PVP-A, and VS-6063-10% SDD in [sequence] L100-55 were administered at a target dose level of 10 mg API/kg. Blood samples (anticoagulant: K2EDTA) were scheduled for collection from each animal prior to dosing and at 0.25, 0.5, 1, 2, 4, 6, 8, 12 and 24 hours after dosing in each dose session. Blood samples were processed for plasma and the plasma was analyzed for VS-6063 by LC-MS/MS. Plasma concentration-time data for individual animals were analyzed to determine the pharmacokinetic profiles of VS-6063.
(§2) 4 groups of 1 male beagle dog per group received an oral gavage dose of VS-6063 in various formulations in a 4-session crossover design with a minimum 3-day washout period between dose sessions. In each session, VS-6063-25% physical mixture with Soluplus/PVP-A and VS-6063-25% SDD in Soluplus/PVP-A were administered at a target dose level of 20 mg API/kg and VS-6063-50% physical mixture with Soluplus/PVP-A was administered at target dose levels of 10 and 20 mg API/kg. Blood samples (anticoagulant: K2EDTA) were scheduled for collection from each animal prior to dosing and at 0.25, 0.5, 1, 2, 4, 6, 8, 12 and 24 hours after dosing in each dose session. Blood samples were processed for plasma and the plasma was analyzed for VS-6063 by LC-MS/MS. Plasma concentration-time data for individual animals were analyzed to determine the pharmacokinetic profiles of VS-6063.
(§3) VS-6063 was formulated (0.934 correction factor) at a target concentration of 10 mg API/mL in 0.5% (w/v) Methocel A4M in water with 0.1% (v/v) Tween 80. VS-6063-25% SDD in Soluplus/PVP-A was formulated (0.25 correction factor) at a target concentration of 10 mg API/mL in 0.5% (w/v) Methocel A4M in water. VS-6063-25% physical mixture with Soluplus/PVP-A was formulated (0.25 correction factor) at a target concentration of 10 mg API/mL in 0.5% (w/v) Methocel A4M in water. VS-6063-10% SDD in [sequence] L100-55 was formulated (0.10 correction factor) at a target concentration of 10 mg API/mL in 0.5% (w/v) Methocel A4M in water.
(§4) VS-6063-25% physical mixture with Soluplus/PVP-A and VS-6063-25% SDD in Soluplus/PVP-A were formulated (0.25 correction factor) at a target concentration of 10 mg API/mL in 0.5% (w/v) Methocel A4M in water. VS-6063-50% Physical mixture with Soluplus/PVP-A was formulated (0.50 correction factor) at target concentrations of 5 mg API/mL and 10 mg API/mL in 0.5% (w/v) Methocel A4M in water.
(§5) 4 groups of 1 male beagle dog per group received an oral gavage dose of VS-6063 in various formulations in a 4-session crossover design with a minimum 3-day washout period between dose sessions. In each session, VS-6063, VS-6063-25% SDD in Soluplus/PVP-A, VS-6063-25% physical mixture with Soluplus/PVP-A and VS-6063-10% SDD in [sequence] […] Food was returned at 4 hours post-dose.
(§6) Prior to dosing, the body weight of each animal was recorded. Doses (rounded to the nearest 0.01 mL) were calculated based on the pretreatment body weight (kg) and a dose volume of 1 mL/kg. Following the oral gavage dose, the gavage tube was flushed with 10 to 20 mL of water prior to removal of the tube. Dosing syringes were weighed immediately prior to and immediately after dosing each animal, and the quantity of formulation administered to each animal was determined from the difference in syringe weights.
(§7) 4 groups of 1 male beagle dog per group received an oral gavage dose of VS-6063 in various formulations in a 4-session crossover design with a minimum 3-day washout period between dose sessions.

[2] = male, beagle, dog, in vivo, po
Protocol: as §1, §2, §3, §4, §5, §6, §7

Tmax (in vivo; 10 mg/kg): 2 h | half-life (in vivo; 10 mg/kg, t1/2): ~3.9 h | Tmax (in vivo): 2 to 4 h | Mean AUCinf/Dose [2]: 312 ng·h/mL per mg/kg | Tmax [2]: 2.50 h | Tmax ([2]; 10 mg/kg): 4 h
Compound: CNC(=O)c1ccc(Nc2ncc(C(F)(F)F)c(NCc3nccnc3N(C)S(C)(=O)=O)n2)cc1 [VS-6063]
incidence of AEs ([1]; Regimen A (200 mg reference, fasted)): 3 subjects | incidence of AEs ([1]; Regimen B (100 mg prototype, fasted)): 2 subjects | incidence of AEs ([1]; Regimen C (fed)): 5 subjects | incidence of AEs ([1]; Regimen D (fed)): 1 subject | tolerability ([1]; single dose, fed and fasted, reference and prototype formulations): well tolerated | serious or severe adverse events ([1]; whole study): no serious adverse events (AEs) or severe AEs | total AEs reported ([1]; whole study, reported by 9 subjects): 12 AEs

From patent US20150190346A1, “COMPOSITIONS AND METHODS FOR TREATMENT OF ABNORMAL CELL GROWTH” (VERASTEM, INC., priority 2014, published 2015)
